In ChEMBL document CHEMBL4346678, “Synthesis and anti-cancer evaluation of folic acid-peptide- paclitaxel conjugates for addressing drug resistance” (Eur J Med Chem, 2019):
In brackets after ≈: the same amount, converted by molar mass. Activity calls are given as the source filed them. The rule behind the calls is not given here. Starred links: 1 amine or outer side, 2 acyl side, 3 side chain; linkers in the order of their positions; H or OH if unused. Residues, ends and D or L forms follow the SMILES beside them. *: point of attachment. X1 = CC(=O)O[C@H]1C(=O)[C@@]2(C)[C@H]([C@H](OC(=O)c3ccccc3)[C@]3(O)C[C@H](OC(=O)[C@H](OC(=O)CCCCCN4C(=O)CC(*)C4=O)[C@@H](NC(=O)c4ccccc4)c4ccccc4)C(C)=C1C3(C)C)[C@]1(OC(C)=O)CO[C@@H]1C[C@@H]2O; Pteroyl = Nc1nc2ncc(CNc3ccc(C(=O)*)cc3)nc2c(=O)[nH]1; γGlu = O=C(O)[C@H](CCC(=O)[*:2])N[*:1]

Assays:
[1] = system: MCF7/PTX; experiment: Induction of membrane disruption in human MCF7/PTX cells incubated for 12 hrs by LDH release assay; assay type: functional, cell-based
[2] = system: MCF7/PTX; experiment: Induction of apoptosis in human MCF7/PTX cells assessed as late apoptotic cells at 3 uM incubated for 12 hrs by Annexin V-FITC/propidium iodide staining based flow cytometric analysis (reference value: 0.9%); assay type: functional
[3] = system: MCF7; experiment: Cytotoxicity against human MCF7 cells incubated for 48 hrs by MTT assay; assay type: functional, cell-based; conditions: MCF7, 48 h
[4] = system: MCF7/PTX; experiment: Cytotoxicity against human MCF7/PTX cells incubated for 48 hrs by MTT assay; assay type: functional, cell-based
[5] = system: K562; experiment: Cytotoxicity against human K562 cells incubated for 48 hrs by MTT assay; assay type: functional, cell-based; conditions: K562, 48 h
[6] = system: A2780; experiment: Cytotoxicity against human A2780 cells incubated for 48 hrs by MTT assay; assay type: functional, cell-based; conditions: A2780, 48 h
[7] = system: SK-OV-3; experiment: Cytotoxicity against human SKOV3 cells incubated for 48 hrs by MTT assay; assay type: functional, cell-based; conditions: SK-OV-3, 48 h
[8] = system: HUVEC; experiment: Cytotoxicity against HUVEC incubated for 48 hrs by MTT assay; assay type: cell-based; conditions: Homo sapiens
[9] = system: MCF7/PTX; experiment: Induction of apoptosis in human MCF7/PTX cells assessed as necrotic cells at 3 uM incubated for 12 hrs by Annexin V-FITC/propidium iodide staining based flow cytometric analysis (reference value: 2.1%); assay type: functional
[10] = system: MCF7/PTX; experiment: Induction of apoptosis in human MCF7/PTX cells assessed as live cells at 3 uM incubated for 12 hrs by Annexin V-FITC/propidium iodide staining based flow cytometric analysis (reference value: 95.9%); assay type: functional
[11] = system: MCF7/PTX; experiment: Induction of apoptosis in human MCF7/PTX cells assessed as early apoptotic cells at 3 uM incubated for 12 hrs by Annexin V-FITC/propidium iodide staining based flow cytometric analysis (reference value: 1.1%); assay type: functional
[12] = system: Erythrocyte; experiment: Hemolytic activity in Wistar rat erythrocytes incubated for 1 hr; assay type: ADME, cell-based
[13] = Drug uptake in human MCF7/PTX cells at 1 to 6 uM incubated for 2 hrs using FITC-labelled compound by flow cytometric analysis; assay type: ADME, cell-based
[14] = system: MCF7/PTX; experiment: Cytotoxicity against human MCF7/PTX cells at 1 to 6 uM incubated for 48 hrs by MTT assay; assay type: functional, cell-based
[15] = system: MCF7; experiment: Cytotoxicity against human MCF7 cells at 1 to 6 uM incubated for 48 hrs by MTT assay; assay type: functional, cell-based
[16] = system: MCF7/PTX; experiment: Induction of membrane disruption in human MCF7/PTX cells at 3 uM incubated for 12 hrs by AO/EB double staining based fluorescence microscopic method; assay type: functional, cell-based
[17] = system: MCF7/PTX; experiment: Induction of mitochondrial membrane potential loss in human MCF7/PTX cells at 3 uM incubated for 12 hrs by JC1 staining-based confocal microscopic method; assay type: functional, cell-based
[18] = system: MCF7/PTX; experiment: Induction of apoptosis in human MCF7/PTX cells assessed as increase in cleaved caspase 3 level in cytoplasm at 3 uM incubated for 2 hrs by Western blot analysis; assay type: functional, cell-based
[19] = system: MCF7/PTX; experiment: Induction of apoptosis in human MCF7/PTX cells assessed increase in cytochrome-c expression in cytoplasm at 3 uM incubated for 2 hrs by Western blot analysis; assay type: functional, cell-based
[20] = system: MCF7/PTX; experiment: Induction of membrane disruption in human MCF7/PTX cells incubated for 12 hrs by AO/EB double-staining based fluorescence microscopic method; assay type: functional, cell-based
[21] = Aqueous solubility of the compound; assay type: physicochemical; conditions: buffer
[22] = target: Tubulin (Sus scrofa) (UniProt P02554+P02550); experiment: Induction of porcine brain tubulin polymerization at 3 uM by fluorescence analysis
[23] = Antitumor activity against […] cells xenografted in ICR mouse assessed as reduction in tumor volume at 12 umol/kg administered once every 2 days via peritumoral route for 2 weeks measured for 22 days by caliper analysis relative to control; assay type: functional
[24] = Half life in Wistar rat plasma at 500 ug/ml measured over 24 hrs at 37 degC by UPLC/MS analysis; assay type: ADME, cell-free
[25] = system: MCF7/PTX; experiment: Induction of apoptosis in human MCF7/PTX cells assessed as live cells at 3 uM incubated for 12 hrs by Annexin V-FITC/propidium iodide staining based flow cytometric analysis in presence of paclitaxel (reference value: 95.9%); assay type: functional
[26] = system: MCF7/PTX; experiment: Induction of apoptosis in human MCF7/PTX cells assessed as early apoptotic cells at 3 uM incubated for 12 hrs by Annexin V-FITC/propidium iodide staining based flow cytometric analysis in presence of paclitaxel (reference value: 1.1%); assay type: functional
[27] = system: MCF7/PTX; experiment: Induction of apoptosis in human MCF7/PTX cells assessed as late apoptotic cells at 3 uM incubated for 12 hrs by Annexin V-FITC/propidium iodide staining based flow cytometric analysis in presence of paclitaxel (reference value: 0.9%); assay type: functional
[28] = system: MCF7/PTX; experiment: Induction of apoptosis in human MCF7/PTX cells assessed as necrotic cells at 3 uM incubated for 12 hrs by Annexin V-FITC/propidium iodide staining based flow cytometric analysis in presence of paclitaxel (reference value: 2.1%); assay type: functional

Sequence of Tubulin (Sus scrofa) (P02550 whole entry, looked up): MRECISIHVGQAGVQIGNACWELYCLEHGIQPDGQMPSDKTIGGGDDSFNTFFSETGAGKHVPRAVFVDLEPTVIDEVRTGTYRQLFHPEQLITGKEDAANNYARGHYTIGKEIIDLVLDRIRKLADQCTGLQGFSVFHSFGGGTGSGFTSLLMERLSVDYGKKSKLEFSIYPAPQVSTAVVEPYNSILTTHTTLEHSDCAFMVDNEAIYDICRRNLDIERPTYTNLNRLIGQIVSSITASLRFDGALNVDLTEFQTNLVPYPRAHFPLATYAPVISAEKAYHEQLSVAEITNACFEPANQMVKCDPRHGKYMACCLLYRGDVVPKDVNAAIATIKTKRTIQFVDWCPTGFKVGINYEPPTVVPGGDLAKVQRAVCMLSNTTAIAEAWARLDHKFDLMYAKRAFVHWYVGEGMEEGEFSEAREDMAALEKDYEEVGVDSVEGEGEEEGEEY
Sequence of Tubulin (Sus scrofa) (P02554 whole entry, looked up): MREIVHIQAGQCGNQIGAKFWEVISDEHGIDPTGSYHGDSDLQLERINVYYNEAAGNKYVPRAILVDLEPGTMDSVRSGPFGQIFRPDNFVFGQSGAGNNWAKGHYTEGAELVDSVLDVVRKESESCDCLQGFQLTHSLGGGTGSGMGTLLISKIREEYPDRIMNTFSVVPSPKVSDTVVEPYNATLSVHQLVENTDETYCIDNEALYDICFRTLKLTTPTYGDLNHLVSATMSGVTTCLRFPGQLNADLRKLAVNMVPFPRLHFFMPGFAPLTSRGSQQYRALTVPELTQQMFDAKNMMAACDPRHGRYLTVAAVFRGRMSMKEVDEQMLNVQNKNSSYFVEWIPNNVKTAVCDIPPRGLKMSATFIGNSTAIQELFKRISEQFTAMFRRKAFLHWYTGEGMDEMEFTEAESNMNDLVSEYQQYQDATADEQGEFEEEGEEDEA

Molecule	Activity [1]	Activity [2] [%]	IC50 [3] [µM]	IC50 [4] [µM]	IC50 [5] [µM]	IC50 [6] [µM]	IC50 [7] [µM]	IC50 [8] [µM]	Activity [9] [%]	Activity [10] [%]	Activity [11] [%]	Activity [12]	Drug uptake [13]	Activity [14]	Activity [16]	further results
CC(=O)O[C@H]1C(=O)[C@@]2(C)[C@H]([C@H](OC(=O)c3ccccc3)[C@]3(O)C[C@H](OC(=O)[C@H](OC(=O)CCCCCN4C(=O)CC(SC[C@H](NC(=O)[C@H](CCCCN)NC(=O)[C@H](CCCCN)NC(=O)[C@H](CC(C)C)NC(=O)[C@H](CCCCN)NC(=O)[C@H](CCCNC(=N)N)NC(=O)[C@H](Cc5ccccc5)NC(=O)[C@H](Cc5ccccc5)NC(=O)[C@H](CCCCN)NC(=O)[C@H](CCCCN)NC(=O)[C@H](Cc5ccccc5)NC(=O)[C@H](CCCNC(=N)N)NC(=O)[C@H](CCCCN)NC(=O)[C@@H](NC(=O)[C@H](CC(C)C)NC(=O)CC[C@H](NC(=O)c5ccc(NCc6cnc7nc(N)[nH]c(=O)c7n6)cc5)C(=O)O)C(C)C)C(=O)N[C@H](C(=O)N[C@@H](CC(C)C)C(=O)N[C@@H](CC(C)C)C(N)=O)C(C)C)C4=O)[C@@H](NC(=O)c4ccccc4)c4ccccc4)C(C)=C1C3(C)C)[C@]1(OC(C)=O)CO[C@@H]1C[C@@H]2O (stereo not given in full) ({Pteroyl-γGlu}-LVKRFKKFFRKLKKC(X1)VLL-NH2)	Dose-dependent effect	34.6	1.79	4.54	5.38	1.95	5.92	48.6	8	56.3	1.1	Toxic	Active	Active	Active	Activity [15]: Active; Activity [17]: Active; Activity [18]: Active; Activity [19]: Active; Activity [20]: Dose-dependent effect
CC(=O)O[C@H]1C(=O)[C@@]2(C)[C@H]([C@H](OC(=O)c3ccccc3)[C@]3(O)C[C@H](OC(=O)[C@H](OC(=O)CCCCCN4C(=O)CC(SC[C@H](NC(=O)[C@H](CCCNC(=N)N)NC(=O)[C@H](CCCNC(=N)N)NC(=O)[C@H](CC(C)C)NC(=O)[C@H](CCCNC(=N)N)NC(=O)[C@H](CCCNC(=N)N)NC(=O)[C@H](Cc5ccccc5)NC(=O)[C@H](Cc5ccccc5)NC(=O)[C@H](CCCNC(=N)N)NC(=O)[C@H](CCCNC(=N)N)NC(=O)[C@H](Cc5ccccc5)NC(=O)[C@H](CCCNC(=N)N)NC(=O)[C@H](CCCNC(=N)N)NC(=O)[C@@H](NC(=O)[C@@H](N)CC(C)C)C(C)C)C(=O)N[C@H](C(=O)N[C@@H](CC(C)C)C(=O)N[C@@H](CC(C)C)C(N)=O)C(C)C)C4=O)[C@@H](NC(=O)c4ccccc4)c4ccccc4)C(C)=C1C3(C)C)[C@]1(OC(C)=O)CO[C@@H]1C[C@@H]2O (stereo not given in full) (H-LVRRFRRFFRRLRRC(X1)VLL-NH2)	Dose-dependent effect	30.2	1.98	5.53	3.82	2.79	6.61	37.2	3.6	64.7	1.7	Toxic			Active	
CC(=O)O[C@H]1C(=O)[C@@]2(C)[C@H]([C@H](OC(=O)c3ccccc3)[C@]3(O)C[C@H](OC(=O)[C@H](O)[C@@H](NC(=O)c4ccccc4)c4ccccc4)C(C)=C1C3(C)C)[C@]1(OC(C)=O)CO[C@@H]1C[C@@H]2O [PACLITAXEL]		1.5		54.8	5.8	2.85	6.29	9.39	3.9	93.2	1.3					solubility [21]: 4 µg/mL (≈ 4.68 µM); Activity [22]: Active; inhibition in vivo at 12 µmol/kg [23]: 49%
H-LVKRFKKFFRKLKKCVLL-NH2		2.6	12.3	15.2	13.7	13.6	14.7	40.2	4.6	91.1	1.6					
CC(=O)O[C@H]1C(=O)[C@@]2(C)[C@H]([C@H](OC(=O)c3ccccc3)[C@]3(O)C[C@H](OC(=O)[C@H](OC(=O)CCCCCN4C(=O)CC(SC[C@H](NC(=O)[C@H](CCCCN)NC(=O)[C@H](CCCCN)NC(=O)[C@H](CC(C)C)NC(=O)[C@H](CCCCN)NC(=O)[C@H](CCCNC(=N)N)NC(=O)[C@H](Cc5ccccc5)NC(=O)[C@H](Cc5ccccc5)NC(=O)[C@H](CCCCN)NC(=O)[C@H](CCCCN)NC(=O)[C@H](Cc5ccccc5)NC(=O)[C@H](CCCNC(=N)N)NC(=O)[C@H](CCCCN)NC(=O)[C@@H](NC(=O)[C@@H](N)CC(C)C)C(C)C)C(=O)N[C@H](C(=O)N[C@@H](CC(C)C)C(=O)N[C@@H](CC(C)C)C(N)=O)C(C)C)C4=O)[C@@H](NC(=O)c4ccccc4)c4ccccc4)C(C)=C1C3(C)C)[C@]1(OC(C)=O)CO[C@@H]1C[C@@H]2O (stereo not given in full) (H-LVKRFKKFFRKLKKC(X1)VLL-NH2)	Dose-dependent effect	20.2	2.15	6.11	5.9	2.69	7.17	31.6	3.2	74.4	2.2	Toxic	Active	inactive	Active	
H-LVRRFRRFFRRLRRCVLL-NH2		9	8.61	17.1	9.49	11.5	13.6	44.5	5.7	83.5	1.7					half-life at 500 ug/ml [24]: 48 min; Activity [25]: 76.7%; Activity [26]: 1.7%; Activity [27]: 15.9%; Activity [28]: 5.8%
